Experimental data as given in patent publication US4405609A, “Combination and method for increasing feed utilization efficiency in ruminants” (Eli Lilly and Company, priority 1982, dated 1983).

How the values were obtained:
[1] = test system: steers; assay: further analysis of feed efficiency data: expected versus observed change; format: in vivo
From the text: When the components are utilized in amounts that are about their respective optimal dose levels when used alone, the combination causes an unexpected increase in feed utilization efficiency, which is believed the result of continued unexpected interaction. The results of this further analysis of data is presented below:
In the foregoing table, Δ is the change in feed efficiency of the treated group over the nontreated group. […] The change in efficiency is thus 0.14. The term "EΔ" is the change in efficiency expected with a combination, and is arrived at by adding the Δ values of the individual components at the appropriate dose levels. The term "OΔ" is the change in efficiency over nontreated controls actually observed with animals receiving the combination.

[2] = test system: feeder calves; assay: in vivo evaluation of monensin and actaplanin in feeder calves on high-grain ration; conditions: 30 grams per ton of each agent in feed
From the text: For example, in a typical in vivo evaluation of the combination of monensin and actaplanin, feeder calves were fed a high-grain ration such as that recited above. Fifteen control animals received the feed ration with no feed efficiency enhancer additive. Another group of fifteen calves received the feed ration containing monensin at 30 grams per ton, while a third group of fifteen animals received the feed ration with actaplanin at 30 grams per ton. A combination of 30 grams per ton of monensin and 30 grams per ton of actaplanin was administered as a feed additive to the ration consumed by a fourth group of fifteen test animals. […] The feed efficiency of such control group, calculated as the pounds of feed consumption required for one pound of animal weight gain, was 13.49.

[3] = test system: Hereford crossbred steers; assay: 140-day monensin/actaplanin feed study, corn silage diet; format: in vivo
Procedure: The animals were divided into a control group and into eleven test groups. All animals were fed a corn silage diet ad libitum once daily throughout the 140-day study, plus two pounds per head per day of the following cattle supplement:
Test compounds were formulated as a premix with 50 percent by weight of ground corn cobs and 48 percent by weight of ground corn. The premixes were added to the corn silage feed rations in amounts necessary to provide the desired doses of active ingredients to the test animals. The data are presented as the average for the entire group of animals receiving a particular dose of active agent.
In the foregoing table, the Feed Efficiency value is calculated by dividing the average amount of feed consumed (pounds of dry matter intake) by the average daily gain in weight (in pounds). Ideally, the animals will gain more weight on less feed intake. Accordingly, the most improvement in feed utilization efficiency is represented by smaller numbers. […] The optimum in this experiment was 10 g./T. of monensin and 40 g./T. of actaplanin which produced a 13.5% improvement in feed efficiency over untreated controls.

[4] = dose giving largest increase in propionate production
From the text: The compositions provided herein comprise a polyether as defined above and a glycopeptide as defined above. The respective components will be present on a weight basis in a ratio of about 1 to about 10 parts polyether together with about 1 to about 10 parts glycopeptide. For example, a polyether such as narasin will be employed at a concentration level of about 1 to about 20 grams per ton of ruminant feedstuff, together with a glycopeptide such as avoparcin or actaplanin at a concentration level of about 5 to about 50 grams per ton of ruminant feedstuff. A particularly preferred embodiment of the invention is a combination of narasin at about 2 to about 10 grams per ton of feedstuff, and actaplanin at about 5 to about 20 grams per ton. […] Typically, the maximal doses of each component to be employed in accordance with the present invention are substantially the same as the maximal doses for effective growth promotion and feed utilization enhancement by the individual components. […] Similarly, actaplanin at a dose of about 30 grams per ton of feed effects the largest increase in propionate production observed with that agent. […]

[5] = test system: steers; assay: combined data of the three steer studies, percentage response versus untreated controls; format: in vivo
From the text: The following figures report such data expressed as a percentage response when compared with untreated control animals.

[6] = test system: Hereford crossbred steers; assay: 140-day narasin/actaplanin feed study; format: in vivo
From the text: Another study was designed to show the unexpected interaction of the polyether narasin in combination with actaplanin. Two hundred forty Hereford crossbred steers averaging about 700 pounds and about 18 months of age were employed. The animals were fed corn silage and high moisture corn, plus two pounds per head per day of the following cattle supplement:
The treatments comprised three dose levels of narasin (0, 4 and 12 g./T.) and four dose levels of actaplanin (0, 10, 20 and 40 g./T.). The animals were randomly assigned to four blocks of twelve partially sheltered pens, each with five animals per pen. The treatments were allotted at random within the four 12-pen blocks such that each treatment was represented in each block. Each of the twelve treatments was replicated four times.

[7] = test system: rumen fluid; assay: in vitro rumen fluid fermentor assay of propionate production; format: cell-based, steers; conditions: ± SD
From the text: Rumen fluid was obtained from steers which had surgically-installed fistula openings into the rumen. The steers were maintained on a high-grain ration such as the one described above.
A sample of rumen fluid was strained through four layers of cheese cloth and the eluate was collected in vacuum bottles. The particulate matter retained by the cheese cloth was resuspended in enough physiological buffer to return it to the original volume of the rumen fluid, and the eluate was strained again. The buffer utilized is described by Cheng et al., J. Dairy Sci., 38, 1225 (1955).
The two eluates were combined in a separatory funnel and allowed to stand until any remaining particulate matter separated to the top. The clear liquid layer then was removed, diluted with an equal volume of the above-mentioned buffer, and the pH of the solution was adjusted to 7.0.
Fermenter flasks were then changed with the rumen liquor thus prepared. Two fermentor flasks were used per each treatment group. The fermentor flasks were allowed to stand for four days for equilibration, and then measurements of proprionate production were made daily for six days in order to establish a control. Measurements were made by gas chromatographic methods. The fermenter flasks were then fed 20 grams per day of a finely ground ration composed of 20 percent high concentrate ration and 80 percent alfalfa hay. The individual feed efficiency enhancers, and the composition of such enhancers provided by this invention, were added to the feed and dried thereon prior to introduction of the feed ration into the fermentor flasks. The feed ration was introduced into the flasks approximately two times each day. After the initial administration of active ingredient, two days were allowed for reequilibration, and then the volatile fatty acid (VFA) production in each flask was monitored by gas chromatography for five days.

[8] = test system: Hereford crossbred steers; assay: 154-day trial of monensin (30 g./T.) with actaplanin; format: in vivo
From the text: In another study, two hundred Hereford crossbred steers averaging about 565 pounds were employed in a 154-day trial to determine the efficacy of combinations of monensin (at 30 g./T.) and actaplanin (at 20 g./T., 40 g./T. and 60 g./T.). The steers were fed a corn silage or corn-soya-cob roughage diet ad libitum once a day, together with a cattle supplement. The animals were divided into five treatment groups of forty steers each. These treatment groups were maintained in open pens; five animals per pen so that each treatment group comprised eight pens. Individual treatments were then assigned at random to each of the eight pens so that each treatment was replicated […] within each ration group.

[9] = test system: ruminants; conditions: Raun et al., J. Ani. Sci. 43, 670 (1976); cited from earlier work
[10] = monensin 0, actaplanin 10 grams/Ton
[11] = monensin 0, actaplanin 20 grams/Ton
[12] = monensin 0, actaplanin 40 grams/Ton
[13] = polyether 0, actaplanin 10 g./T.
[14] = polyether 0, actaplanin 20 g./T.
[15] = polyether 0, actaplanin 40 g./T.
[16] = monensin 30, actaplanin 0 grams/Ton
[17] = monensin 10, actaplanin 0 grams/Ton

actaplanin
Δ, change in feed efficiency of the treated group over the nontreated group ([1]; actaplanin 10 g./T. alone): 0.09 | Δ, change in feed efficiency of the treated group over the nontreated group ([1]; actaplanin 20 g./T. alone): 0.28 | Δ, change in feed efficiency of the treated group over the nontreated group ([1]; actaplanin 40 g./T. alone): 0.36 | Feed efficiency (feed to gain ratio) ([1]; monensin 0, actaplanin 10 g./T.): 6.00 | Feed efficiency (feed to gain ratio) ([1]; monensin 0, actaplanin 20 g./T.): 5.81 | Feed efficiency (feed to gain ratio) ([1]; monensin 0, actaplanin 40 g./T.): 5.73 | Average Daily Weight Gain [2]: 1.38 pounds | feed efficiency (pounds of feed consumption required for one pound of animal weight gain) [2]: 12.36 | Average Daily Dry Matter Intake [3, 10]: 12.86 lbs | Average Daily Dry Matter Intake % change from control [3, 10]: +4.1% | Average Daily Weight Gain [3, 10]: 2.44 lbs | Average Daily Weight Gain % change over control [3, 10]: +9.4% | Feed Efficiency [3, 10]: 5.28 | Feed Efficiency % change from control [3, 10]: -4.9% | Average Daily Dry Matter Intake [3, 11]: 12.86 lbs | Average Daily Dry Matter Intake % change from control [3, 11]: +4.1% | Average Daily Weight Gain [3, 11]: 2.37 lbs | Average Daily Weight Gain % change over control [3, 11]: +6.3% | Feed Efficiency [3, 11]: 5.43 | Feed Efficiency % change from control [3, 11]: -2.0% | Average Daily Dry Matter Intake [3, 12]: 12.47 lbs | Average Daily Dry Matter Intake % change from control [3, 12]: +1.0% | Average Daily Weight Gain [3, 12]: 2.39 lbs | Average Daily Weight Gain % change over control [3, 12]: +7.2% | Feed Efficiency [3, 12]: 5.22 | Feed Efficiency % change from control [3, 12]: -6.1% | dose that effects the largest increase in propionate production observed with that agent [4]: about 30 grams per ton of feed | Combined Daily Gain Data, percentage response compared with untreated control [5, 13]: 5.5 percentage | Combined Feed Efficiency Data, percentage response compared with untreated control [5, 13]: 1.3 percentage | Combined Daily Gain Data, percentage response compared with untreated control [5, 14]: 6.6 percentage | Combined Feed Efficiency Data, percentage response compared with untreated control [5, 14]: 4.4 percentage | Combined Daily Gain Data, percentage response compared with untreated control [5, 15]: 6.3 percentage | Combined Feed Efficiency Data, percentage response compared with untreated control [5, 15]: 5.8 percentage | feed intake (in words) ([6]; actaplanin alone at 20 g./T.): slight decrease in feed intake | improved daily gains ([6]; actaplanin alone at 20 g./T.): 5.9% | Average Daily Dry Matter Intake ([6]; narasin 0, actaplanin 10 g./T.): 16.47 Pounds | Average Daily Weight Gain ([6]; narasin 0, actaplanin 10 g./T.): 2.54 Pounds | Average Feed Efficiency ([6]; narasin 0, actaplanin 10 g./T.): 6.47 | Average Daily Dry Matter Intake ([6]; narasin 0, actaplanin 20 g./T.): 16.51 Pounds | Average Daily Weight Gain ([6]; narasin 0, actaplanin 20 g./T.): 2.66 Pounds | Average Feed Efficiency ([6]; narasin 0, actaplanin 20 g./T.): 6.19 | Average Daily Dry Matter Intake ([6]; narasin 0, actaplanin 40 g./T.): 16.02 Pounds | Average Daily Weight Gain ([6]; narasin 0, actaplanin 40 g./T.): 2.59 Pounds | Average Feed Efficiency ([6]; narasin 0, actaplanin 40 g./T.): 6.18 | Propionate Production ([7]; Monensin 0 PPM, Actaplanin 1 PPM): 13.0 ± 2.0 mM/24 hours | Propionate Production ([7]; Monensin 0 PPM, Actaplanin 4 PPM): 19.9 ± 3.0 mM/24 hours

monensin
Δ, change in feed efficiency of the treated group over the nontreated group ([1]; monensin 10 g./T. alone): 0.14 | Feed efficiency (feed to gain ratio) ([1]; monensin 10 g./T., actaplanin 0): 5.95 | Δ, change in feed efficiency of the treated group over the nontreated group ([1]; monensin 30 g./T. alone): 0.39 | Feed efficiency (feed to gain ratio) ([1]; monensin 30 g./T., actaplanin 0): 5.70 | Average Daily Weight Gain [2]: 1.42 pounds | feed efficiency (pounds of feed consumption required for one pound of animal weight gain) [2]: 12.05 | Average Daily Dry Matter Intake [8, 16]: 16.79 lbs | Average Daily Weight Gain [8, 16]: 2.41 lbs | Feed Efficiency [8, 16]: 7.01 | increase in feed efficiency versus control ([8]; monensin alone (30 g./T.)): 6.4% | Average Daily Dry Matter Intake [3, 17]: 13.54 lbs | Average Daily Dry Matter Intake % change from control [3, 17]: +9.6% | Average Daily Weight Gain [3, 17]: 2.45 lbs | Average Daily Weight Gain % change over control [3, 17]: +9.9% | Feed Efficiency [3, 17]: 5.52 | Feed Efficiency % change from control [3, 17]: -0.3% | Average Daily Dry Matter Intake [3, 16]: 12.94 lbs | Average Daily Dry Matter Intake % change from control [3, 16]: +4.8% | Average Daily Weight Gain [3, 16]: 2.39 lbs | Average Daily Weight Gain % change over control [3, 16]: +7.2% | Feed Efficiency [3, 16]: 5.42 | Feed Efficiency % change from control [3, 16]: -2.2% | dosage level of maximal improvement in feed efficiency [9]: about 33 ppm | dose level of maximal improvement in feed efficiency [9]: about 30 grams per ton of feed | Propionate Production ([7]; Monensin 0.5 PPM, Actaplanin 0 PPM): 14.2 ± 1.7 mM/24 hours | Propionate Production ([7]; Monensin 3 PPM, Actaplanin 0 PPM): 18.4 ± 3.2 mM/24 hours
